Key:
CYPIR (Rice Flatsedge) = experiment: Preemergence weed control under flooded paddy conditions; assay type: in vivo, Cyperus iria; conditions: rated 3-4 weeks after treatment
How it was run: (§1)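 Herbicidal effect is scored visually on a 0-9 scale against an untreated control, three to four weeks after compounds are pipetted into the flood water (1.5 to 3 cm deep) over seeds planted in silt loam at 0.5 cm depth. Rates: about 0.0313 to 0.500 kg/ha.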

[1] = test system: TRZAWR (Wheat, Winter, cv Riband); experiment: Postemergence herbicidal evaluation; assay type: in vivo, Triticum aestivum; conditions: postemergence
How it was run: (§2)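 First, seedlings were raised for around two weeks. Next, test material in 50/50 acetone/water containing 0.5% TWEEN 20 was sprayed through a nozzle at 40 psi, equivalent to about 0.0156–0.500 kg/ha. Finally, after 4–5 weeks in the greenhouse, plants were rated 0–9.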

GALAP (Galium) = experiment: Postemergence herbicidal evaluation; assay type: in vivo, Galium aparine; conditions: postemergence
How it was run: as §2

SETVI (Foxtail, Green) [2] = experiment: Preemergence herbicidal evaluation; assay type: in vivo, Setaria viridis; conditions: rated 4-5 weeks after treatment, rating scale 0-9
How it was run: (§3)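 Visual 0-9 rating vs control (stand, vigor, malformation, size, chlorosis, overall appearance), scored 4-5 wk after spraying. Seeded soil cups were treated preemergence with compound in aqueous acetone, ~0.0156-0.500 kg/ha equivalent.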

[3] = test system: IPOHE (Morningglory, Ivyleaf); experiment: Postemergence herbicidal evaluation; assay type: in vivo, Ipomoea hederacea; conditions: postemergence
How it was run: as §2

ECHCG (Barnyardgrass) = experiment: Preemergence herbicidal evaluation; assay type: in vivo, Echinochloa crus-galli; conditions: rated 4-5 weeks after treatment, rating scale 0-9
How it was run: as §3

[4] = test system: ECHORC (Watergrass (Calif.)); experiment: Preemergence weed control under flooded paddy conditions; assay type: in vivo, Echinochloa oryzoides; conditions: rated 3-4 weeks after treatment
How it was run: as §1

[5] = test system: IPOHE (Morningglory, Ivyleaf); experiment: Preemergence herbicidal evaluation; assay type: in vivo, Ipomoea hederacea; conditions: rated 4-5 weeks after treatment, rating scale 0-9
How it was run: as §3

SETVI (Foxtail, Green) [6] = experiment: Postemergence herbicidal evaluation; assay type: in vivo, Setaria viridis; conditions: postemergence
How it was run: as §2

ABUTH (Velvetleaf) = experiment: Preemergence herbicidal evaluation; assay type: in vivo, Abutilon theophrasti; conditions: rated 4-5 weeks after treatment, rating scale 0-9
How it was run: as §3

MOOVA (Monochoria) = experiment: Preemergence weed control under flooded paddy conditions; assay type: in vivo, Monochoria vaginalis; conditions: rated 3-4 weeks after treatment
How it was run: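 Greenhouse paddy assay. Acetone/water (50/50 v/v) solutions dosed into flood water, equivalent to about 0.0313 to 0.500 kg/ha active ingredient, over seeds planted 0.5 cm deep in silt loam. Score: 0-9 visual, based on stand, vigor, malformation, size and chlorosis, 3 to 4 weeks after treatment.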

ZEAMX (Corn, Field) = experiment: Preemergence herbicidal evaluation; assay type: in vivo, Zea mays; conditions: rated 4-5 weeks after treatment, rating scale 0-9
How it was run: as §3

## COc1cc(CN2C(=O)CSC2=Nc2cc(-n3c(=O)cc(C(F)(F)F)n(C)c3=O)c(F)cc2Cl)cc(OC)c1OC [Compound 140, 3-{4-Chloro-2-fluoro-5-{[3-(3,4,5-trimethoxybenzyl)-4-oxo-2-thiazolidinylidene]amino}phenyl}-1-methyl-6-(trifluoromethyl)-2,4(1H,3H)-pyrimidinedione]
CYPIR (Rice Flatsedge); 0.0313 kg/ha
  herbicidal effect rating, CYPIR: 4.0
CYPIR (Rice Flatsedge); 0.0625 kg/ha
  herbicidal effect rating, CYPIR: 7.0
CYPIR (Rice Flatsedge); 0.1250 kg/ha
  herbicidal effect rating, CYPIR: 9.0
CYPIR (Rice Flatsedge); 0.2500 kg/ha
  herbicidal effect rating, CYPIR: 7.0
[1]; rate 0.0156 kg/ha
  Herbicidal rating TRZAWR: 2.5
[1]; rate 0.0313 kg/ha
  Herbicidal rating TRZAWR: 3.5
[1]; rate 0.0625 kg/ha
  Herbicidal rating TRZAWR: 4.0
GALAP (Galium); rate 0.0156 kg/ha
  Herbicidal rating GALAP: 0.0
GALAP (Galium); rate 0.0313 kg/ha
  Herbicidal rating GALAP: 0.0
GALAP (Galium); rate 0.0625 kg/ha
  Herbicidal rating GALAP: 2.0
SETVI (Foxtail, Green) [2]; rate 0.0625 kg/ha
  Preemergence herbicidal rating SETVI: 0.0
SETVI (Foxtail, Green) [2]; rate 0.1250 kg/ha
  Preemergence herbicidal rating SETVI: 0.0
SETVI (Foxtail, Green) [2]; rate 0.2500 kg/ha
  Preemergence herbicidal rating SETVI: 0.0
[3]; rate 0.0156 kg/ha
  Herbicidal rating IPOHE: 9.0
[3]; rate 0.0313 kg/ha
  Herbicidal rating IPOHE: 9.0
[3]; rate 0.0625 kg/ha
  Herbicidal rating IPOHE: 9.0
ECHCG (Barnyardgrass); rate 0.0625 kg/ha
  Preemergence herbicidal rating ECHCG: 0.0
ECHCG (Barnyardgrass); rate 0.1250 kg/ha
  Preemergence herbicidal rating ECHCG: 0.0
ECHCG (Barnyardgrass); rate 0.2500 kg/ha
  Preemergence herbicidal rating ECHCG: 0.0
[4]; 0.0313 kg/ha
  herbicidal effect rating, ECHORC: 5.0
[4]; 0.0625 kg/ha
  herbicidal effect rating, ECHORC: 5.0
[4]; 0.1250 kg/ha
  herbicidal effect rating, ECHORC: 7.0
[4]; 0.2500 kg/ha
  herbicidal effect rating, ECHORC: 7.0
[5]; rate 0.0625 kg/ha
  Preemergence herbicidal rating IPOHE: 0.0
[5]; rate 0.1250 kg/ha
  Preemergence herbicidal rating IPOHE: 3.0
[5]; rate 0.2500 kg/ha
  Preemergence herbicidal rating IPOHE: 3.0
SETVI (Foxtail, Green) [6]; rate 0.0156 kg/ha
  Herbicidal rating SETVI: 0.0
SETVI (Foxtail, Green) [6]; rate 0.0313 kg/ha
  Herbicidal rating SETVI: 0.0
SETVI (Foxtail, Green) [6]; rate 0.0625 kg/ha
  Herbicidal rating SETVI: 0.0
ABUTH (Velvetleaf); rate 0.0625 kg/ha
  Preemergence herbicidal rating ABUTH: 0.0
ABUTH (Velvetleaf); rate 0.1250 kg/ha
  Preemergence herbicidal rating ABUTH: 3.0
ABUTH (Velvetleaf); rate 0.2500 kg/ha
  Preemergence herbicidal rating ABUTH: 7.0
MOOVA (Monochoria); 0.0313 kg/ha
  herbicidal effect rating, MOOVA: 4.0
MOOVA (Monochoria); 0.0625 kg/ha
  herbicidal effect rating, MOOVA: 7.0
MOOVA (Monochoria); 0.1250 kg/ha
  herbicidal effect rating, MOOVA: 9.0
MOOVA (Monochoria); 0.2500 kg/ha
  herbicidal effect rating, MOOVA: 9.0
ZEAMX (Corn, Field); rate 0.0625 kg/ha
  Preemergence herbicidal rating ZEAMX: 0.0
ZEAMX (Corn, Field); rate 0.1250 kg/ha
  Preemergence herbicidal rating ZEAMX: 0.0
ZEAMX (Corn, Field); rate 0.2500 kg/ha
  Preemergence herbicidal rating ZEAMX: 0.0

## Cn1c(C(F)(F)F)cc(=O)n(-c2cc(N=C3SCC(=O)N3Cc3ccc(F)cc3)c(Cl)cc2F)c1=O [Compound 151, 3-{4-Chloro-2-fluoro-5-{[3-(p-fluorobenzyl)-4-oxo-2-thiazolidinylidene]amino}phenyl}-1-methyl-6-(trifluoromethyl)-2,4(1H,3H)-pyrimidinedione]
CYPIR (Rice Flatsedge); 0.0313 kg/ha
  herbicidal effect rating, CYPIR: 0.0
CYPIR (Rice Flatsedge); 0.0625 kg/ha
  herbicidal effect rating, CYPIR: 2.0
CYPIR (Rice Flatsedge); 0.1250 kg/ha
  herbicidal effect rating, CYPIR: 6.0
CYPIR (Rice Flatsedge); 0.2500 kg/ha
  herbicidal effect rating, CYPIR: 8.0
[1]; rate 0.0156 kg/ha
  Herbicidal rating TRZAWR: 2.5
[1]; rate 0.0313 kg/ha
  Herbicidal rating TRZAWR: 2.5
[1]; rate 0.0625 kg/ha
  Herbicidal rating TRZAWR: 4.0
GALAP (Galium); rate 0.0156 kg/ha
  Herbicidal rating GALAP: 4.0
GALAP (Galium); rate 0.0313 kg/ha
  Herbicidal rating GALAP: 4.0
GALAP (Galium); rate 0.0625 kg/ha
  Herbicidal rating GALAP: 6.0
SETVI (Foxtail, Green) [2]; rate 0.0156 kg/ha
  Preemergence herbicidal rating SETVI: 9.0
SETVI (Foxtail, Green) [2]; rate 0.0313 kg/ha
  Preemergence herbicidal rating SETVI: 9.0
SETVI (Foxtail, Green) [2]; rate 0.0625 kg/ha
  Preemergence herbicidal rating SETVI: 9.0
SETVI (Foxtail, Green) [2]; rate 0.1250 kg/ha
  Preemergence herbicidal rating SETVI: 9.0
SETVI (Foxtail, Green) [2]; rate 0.2500 kg/ha
  Preemergence herbicidal rating SETVI: 9.0
[3]; rate 0.0156 kg/ha
  Herbicidal rating IPOHE: 9.0
[3]; rate 0.0313 kg/ha
  Herbicidal rating IPOHE: 9.0
[3]; rate 0.0625 kg/ha
  Herbicidal rating IPOHE: 9.0
ECHCG (Barnyardgrass); rate 0.0156 kg/ha
  Preemergence herbicidal rating ECHCG: 2.0
ECHCG (Barnyardgrass); rate 0.0313 kg/ha
  Preemergence herbicidal rating ECHCG: 9.0
ECHCG (Barnyardgrass); rate 0.0625 kg/ha
  Preemergence herbicidal rating ECHCG: 7.0
ECHCG (Barnyardgrass); rate 0.1250 kg/ha
  Preemergence herbicidal rating ECHCG: 9.0
ECHCG (Barnyardgrass); rate 0.2500 kg/ha
  Preemergence herbicidal rating ECHCG: 9.0
[4]; 0.0313 kg/ha
  herbicidal effect rating, ECHORC: 3.0
[4]; 0.0625 kg/ha
  herbicidal effect rating, ECHORC: 5.0
[4]; 0.1250 kg/ha
  herbicidal effect rating, ECHORC: 9.0
[4]; 0.2500 kg/ha
  herbicidal effect rating, ECHORC: 9.0
[5]; rate 0.0156 kg/ha
  Preemergence herbicidal rating IPOHE: 4.0
[5]; rate 0.0313 kg/ha
  Preemergence herbicidal rating IPOHE: 9.0
[5]; rate 0.0625 kg/ha
  Preemergence herbicidal rating IPOHE: 9.0
[5]; rate 0.1250 kg/ha
  Preemergence herbicidal rating IPOHE: 9.0
[5]; rate 0.2500 kg/ha
  Preemergence herbicidal rating IPOHE: 9.0
SETVI (Foxtail, Green) [6]; rate 0.0156 kg/ha
  Herbicidal rating SETVI: 5.0
SETVI (Foxtail, Green) [6]; rate 0.0313 kg/ha
  Herbicidal rating SETVI: 5.0
SETVI (Foxtail, Green) [6]; rate 0.0625 kg/ha
  Herbicidal rating SETVI: 9.0
ABUTH (Velvetleaf); rate 0.0156 kg/ha
  Preemergence herbicidal rating ABUTH: 9.0
ABUTH (Velvetleaf); rate 0.0313 kg/ha
  Preemergence herbicidal rating ABUTH: 9.0
ABUTH (Velvetleaf); rate 0.0625 kg/ha
  Preemergence herbicidal rating ABUTH: 9.0
ABUTH (Velvetleaf); rate 0.1250 kg/ha
  Preemergence herbicidal rating ABUTH: 9.0
ABUTH (Velvetleaf); rate 0.2500 kg/ha
  Preemergence herbicidal rating ABUTH: 9.0
MOOVA (Monochoria); 0.0313 kg/ha
  herbicidal effect rating, MOOVA: 6.0
MOOVA (Monochoria); 0.0625 kg/ha
  herbicidal effect rating, MOOVA: 9.0
MOOVA (Monochoria); 0.1250 kg/ha
  herbicidal effect rating, MOOVA: 9.0
MOOVA (Monochoria); 0.2500 kg/ha
  herbicidal effect rating, MOOVA: 9.0
ZEAMX (Corn, Field); rate 0.0156 kg/ha
  Preemergence herbicidal rating ZEAMX: 7.0
ZEAMX (Corn, Field); rate 0.0313 kg/ha
  Preemergence herbicidal rating ZEAMX: 7.0
ZEAMX (Corn, Field); rate 0.0625 kg/ha
  Preemergence herbicidal rating ZEAMX: 7.0
ZEAMX (Corn, Field); rate 0.1250 kg/ha
  Preemergence herbicidal rating ZEAMX: 9.0
ZEAMX (Corn, Field); rate 0.2500 kg/ha
  Preemergence herbicidal rating ZEAMX: 9.0
